Laboratory results published in paper doi:10.1101/322404v1, “Discovery of a novel stereospecific β-hydroxyacyl-CoA lyase/thioesterase shared by three metabolic pathways in Mycobacterium tuberculosis” (biorxiv, 2018).

Legend:
Rv2498c [1] = target: T1, Rv2498c (Mycobacterium tuberculosis, UniProt P9WPE1)
T1 construct: gene citE

Rv2498c [2] = target: T1, Rv2498c; remark: listed apart in the source
Rv2498c [3] = target: T1, Rv2498c; remark: listed apart in the source
Rv2498c [4] = target: T1, Rv2498c; remark: listed apart in the source

T1 sequence (P9WPE1 whole entry): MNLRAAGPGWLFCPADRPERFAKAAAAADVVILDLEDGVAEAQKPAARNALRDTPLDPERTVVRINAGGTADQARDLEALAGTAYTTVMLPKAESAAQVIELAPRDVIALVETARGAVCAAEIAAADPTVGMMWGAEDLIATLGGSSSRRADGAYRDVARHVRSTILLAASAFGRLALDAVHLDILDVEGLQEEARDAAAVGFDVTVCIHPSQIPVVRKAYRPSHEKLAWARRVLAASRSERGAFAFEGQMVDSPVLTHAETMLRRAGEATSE

In the case of `CC(C)(COP(=O)(O)OP(=O)(O)OC[C@H]1O[C@@H](n2cnc3c(N)ncnc32)[C@H](O)[C@@H]1OP(=O)(O)O)[C@@H](O)C(=O)NCCC(=O)NCCS` [CoA], the “X-ray crystal structure, 1.72 A (6ARB) and 2.04 A (6AS5)” value (Rv2498c [1]) is reported as “A magnesium ion, coordinated pyruvate, and CoA molecule were observed in the active sites”.
In the case of `CC(C)(COP(=O)(O)OP(=O)(O)OC[C@H]1O[C@@H](n2cnc3c(N)ncnc32)[C@H](O)[C@@H]1OP(=O)(O)O)[C@@H](O)C(=O)NCCC(=O)NCCSC(=O)C[C@](C)(O)CC(=O)O` [(R)-HMG-CoA], the “HPLC lyase assay and 1H NMR of products” value (Rv2498c [2]) is reported as “we found that Rv2498c is a lyase specific for the (R)-HMG-CoA”.
In the case of `CC(C)(COP(=O)(O)OP(=O)(O)OC[C@H]1O[C@@H](n2cnc3c(N)ncnc32)[C@H](O)[C@@H]1OP(=O)(O)O)[C@@H](O)C(=O)NCCC(=O)NCCSC(=O)C[C@H](O)C(=O)O` [(S)-malyl-CoA], the HPLC thioesterase assay (Rv2498c [3]) is reported as “Rv2498c was found to subsequently catalyse the hydrolysis of the thioester bond of (S)-malyl-CoA”.
`CC(C)(COP(=O)(O)OP(=O)(O)OC[C@H]1O[C@@H](n2cnc3c(N)ncnc32)[C@H](O)[C@@H]1OP(=O)(O)O)[C@@H](O)C(=O)NCCC(=O)NCCSC(=O)C[C@](C)(O)C(=O)O` [(S)-citramalyl-CoA] was tested, and the “X-ray crystal structure, 1.83 A” value (Rv2498c [4]) was “two citramalyl-CoA molecules”.
